Data: patent publication US4298735A, “Folic acid derivatives” (Union Carbide Corporation, priority 1979, dated 1981)
One block for each compound: values may come before it.

Key:
whole milk folate binder = whole milk folate binder (Bos taurus, UniProt P02702); assay: Folate competitive protein binding (CPB) radioassay; conditions: for dose response curves generated using pteroyltyrosine [125I] as label: at high pH compared with lower pH
Experimental: The use of the Centria® analytical system, Union Carbide Corporation, in this example, is meant to be illustrative and other methods, both automated and manual, obvious to those skilled in the clinical diagnostic art are also within the scope of this invention.
Briefly, the Centria® system is a tri-modular instrument in which reagents are pipetted on to a multi-well transfer disk and mixed centrifugally with standards or patients' samples. After a suitable incubation period, the components are separated by a centrifugal elution of the bound and free fractions and the bound fractions counted three at a time.
Folic acid and N^5 -methyltetrahydrofolic acid standards in the range 0-20 nanograms/milliliter were prepared in 0.05 M sodium borate, pH 9.3 containing 0.1% human serum albumin. The whole milk binder was prepared according to the method of Rothenberg et al., ^(3) and dissolved in sodium borate, pH 9.3 containing 0.1% human serum albumin
(50 microliters, 20,000 cpm) plus 85 microliters of water with the limited number of binding sites contained in a 200 microliter solution of whole milk folate binder. The binding reactions may be shown as follows:
A gamma counter which counts three of the 36 positions at a time for one minute, so constructed that only the eluate bottom portion of the test tubes fits into the counter, was then used to count all samples. Sequential counting of the tubes thus required about 12 minutes. A small computer with printout capability then printed out the data after completion of the cycle.

carboxypeptidase A = assay: Enzymatic hydrolysis of pteroyltyrosine followed by UV; assay type: biochemical; conditions: 0.025 M Tris-HCl, 2 mM zinc chloride, pH 7.3, two hours, ambient temperature
Experimental: Two milliliters of a solution of pteroyltrosine (0.75 mmoles/ml) in 0.025 M Tris-HCl containing 2 mM zinc chloride, pH 7.3 were diluted to 10 ml with distilled water. A portion of this solution (2 ml) was placed in a 1 cm cuvette and in another was placed 2 ml of distilled water. To each of the cuvettes was added 50 μl of a solution of 100 μl carboxypeptidase A suspension (Aldrich chemical, lot 060637) diluted with 0.9 ml of 10% lithium chloride.
The time course of the reaction was followed spectrophotometrically (uv) over a period of two hours at ambient temperature. An increase and shift in max from 280 to 277 nm and a marked decrease in absorption at 220 nm was observed. Two isosbestic points at 242 and 282 nm were visible.

[1] = Storage stability of the radioiodinated label; assay type: physicochemical; conditions: stored in a 50% aqueous propylene glycol solution, ten-week period
Source text: Radioiodination of biological compounds frequently leads to marked chemical instability and subsequent degradation of the radiolabel. This problem is often accentuated in the radiolabel when the materials to be radioiodinated are known to be sensitive to oxygen, light or extremes in pH, as is the case with folic acid and some derivatives.
The reaction mixture was applied to a 1×20 cm Sephadex G25, fine, (Pharmacia Fine Chemicals, Uppsala, Sweden) column hydrated with distilled water and equilibrated with 0.1 M potassium phosphate, pH 7.5. The column was eluted with 0.1 M potassium phosphate buffer and 3 ml fractions collected. The product "peak" fractions 32-34 were collected, diluted 1:1 with propylene glycol and stored below 0° C.

whole milk folate binder, sequence (P02702 20-234): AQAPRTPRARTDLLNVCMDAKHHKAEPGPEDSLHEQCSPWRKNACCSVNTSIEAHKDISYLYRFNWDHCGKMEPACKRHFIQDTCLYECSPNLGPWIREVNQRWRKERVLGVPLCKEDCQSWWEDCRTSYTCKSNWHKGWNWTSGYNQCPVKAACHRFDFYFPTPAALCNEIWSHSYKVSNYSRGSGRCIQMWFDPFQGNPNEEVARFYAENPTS

SMILES: Nc1nc2ncc(CNc3ccc(C(=O)N[C@@H](CCC(=O)O)C(=O)O)cc3)nc2c(=O)[nH]1 [folic acid]
dose response curves generated using pteroyltyrosine [125I] as label (whole milk folate binder): more nearly coincident

SMILES: Nc1nc2ncc(CNc3ccc(C(=O)N[C@@H](Cc4ccc(O)cc4)C(=O)O)cc3)nc2c(=O)[nH]1 [pteroyltyrosine, Pteroyl-L-Tyrosine]
hydrolysis by carboxypeptidase A (UV time course, final spectrum) (carboxypeptidase A): final spectrum was very similar to that of pteroic acid

performance as radiolabel in CPB radioassay for folic acid (whole milk folate binder; folic acid concentration range of 0-20 ng/ml): effective radiolabel | stability of radioiodinated product (assay performance on storage) [1]: no deterioration in assay performance
SMILES: Nc1nc(O)c2nc(CNc3ccc(C(=O)N[C@@H](Cc4ccc(O)c([125I])c4)C(=O)O)cc3)cnc2n1 [pteroyltyrosine [^125 I]]

SMILES: CN1c2c(nc(N)[nH]c2=O)NCC1CNc1ccc(C(=O)N[C@@H](CCC(=O)O)C(=O)O)cc1 (some centres unmarked) [N^5 -methyl THF, N-5-methyltetrahydrofolic acid]
dose response curves generated using pteroyltyrosine [125I] as label (whole milk folate binder): more nearly coincident
